Here are results for two compounds from BindingDB's records for doi:10.1021/cb900232a (Stanford University, 2010).

Common to all, as to assay: Enzyme kinetic assay
Experiment [1] has as its target T1, Procathepsin L (Mus musculus, UniProt P06797).
T1 sequence (P06797 whole entry): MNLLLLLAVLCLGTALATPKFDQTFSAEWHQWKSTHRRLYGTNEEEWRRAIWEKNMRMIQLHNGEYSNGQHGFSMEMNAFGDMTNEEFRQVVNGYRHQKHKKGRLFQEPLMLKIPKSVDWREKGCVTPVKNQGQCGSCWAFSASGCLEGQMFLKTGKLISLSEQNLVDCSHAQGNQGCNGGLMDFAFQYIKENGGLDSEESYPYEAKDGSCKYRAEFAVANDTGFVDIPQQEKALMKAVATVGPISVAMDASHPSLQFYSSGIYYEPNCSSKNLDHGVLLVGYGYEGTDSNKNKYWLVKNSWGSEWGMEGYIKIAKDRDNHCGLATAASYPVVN
The following applies: pH 6.25; 25 °C. As to the method:
(§1) IC50 measurements and enzyme kinetics assays were performed on a Spectramax M5 fluorescent plate reader (Molecular Devices).

For experiment [2], the target named is Cathepsin B (Mus musculus, UniProt P10605). The following applies: pH 6.25; 25 °C. As to the method:
as §1

For experiment [3], the target named is T2, Legumain (Mus musculus, UniProt O89017).
T2 sequence (O89017 whole entry): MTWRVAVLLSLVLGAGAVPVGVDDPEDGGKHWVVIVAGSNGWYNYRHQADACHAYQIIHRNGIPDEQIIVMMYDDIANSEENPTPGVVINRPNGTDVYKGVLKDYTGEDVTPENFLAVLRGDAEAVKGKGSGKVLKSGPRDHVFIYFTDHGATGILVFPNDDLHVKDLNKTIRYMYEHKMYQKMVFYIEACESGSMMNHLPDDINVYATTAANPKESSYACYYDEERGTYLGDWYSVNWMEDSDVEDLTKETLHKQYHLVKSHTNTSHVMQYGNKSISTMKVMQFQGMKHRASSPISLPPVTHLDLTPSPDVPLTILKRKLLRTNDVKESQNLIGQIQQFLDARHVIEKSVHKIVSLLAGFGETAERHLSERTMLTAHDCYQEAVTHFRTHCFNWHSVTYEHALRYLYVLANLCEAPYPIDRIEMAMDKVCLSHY
The following applies: pH 5.8; 25 °C. As to the method: as §1

Experiment [4] concerns the target T3, Caspase-3 (Mus musculus, UniProt P70677).
T3 sequence (P70677 whole entry): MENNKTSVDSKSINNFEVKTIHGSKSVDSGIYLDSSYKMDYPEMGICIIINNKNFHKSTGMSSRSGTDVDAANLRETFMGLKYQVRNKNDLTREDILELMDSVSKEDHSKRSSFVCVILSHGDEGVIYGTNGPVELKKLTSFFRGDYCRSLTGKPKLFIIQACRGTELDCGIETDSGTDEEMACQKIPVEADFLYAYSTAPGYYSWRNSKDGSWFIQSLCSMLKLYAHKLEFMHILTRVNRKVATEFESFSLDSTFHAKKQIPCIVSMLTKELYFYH
To be noted: pH 7.4; 25 °C. As to the method:
as §1

The term IC50 denotes the point on the concentration scale where inhibition reaches its midpoint.

Chain of Cathepsin B (P10605 whole entry): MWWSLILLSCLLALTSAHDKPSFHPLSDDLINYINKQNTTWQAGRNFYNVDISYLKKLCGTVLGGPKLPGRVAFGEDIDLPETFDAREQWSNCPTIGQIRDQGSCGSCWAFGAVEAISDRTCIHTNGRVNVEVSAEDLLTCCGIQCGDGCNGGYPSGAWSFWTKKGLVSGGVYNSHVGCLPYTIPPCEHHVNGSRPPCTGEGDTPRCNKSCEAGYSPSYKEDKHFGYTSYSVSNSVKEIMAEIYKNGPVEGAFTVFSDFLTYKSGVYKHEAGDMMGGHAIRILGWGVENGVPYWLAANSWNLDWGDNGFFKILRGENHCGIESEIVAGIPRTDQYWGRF

`CCOC(=O)[C@H]1O[C@@H]1C(=O)N[C@H](C(=O)NCCc1ccc(O)cc1)C(C)CC` (stereo partly specified) [CID644294]: the IC50 is 2.98 µM in experiment [1] and 0.78 µM in experiment [2].
As to `CCOC(=O)[C@H]1O[C@@H]1C(=O)N(CC(N)=O)NC(=O)[C@@H]1CCCN1C(C)=O` [LI-1], the IC50 in experiment [1] amounted to 220 µM; in experiment [3], 0.0115 µM; in experiment [4] it was 890 µM; in experiment [2], 390 µM.
